Measurements taken from PMC5577655 (mSphere, 2017).
Where two headings read alike, the source gives them in different places.

Columns and labels:
[1] = target: T1, lysyl-tRNA synthetase 1 (LdLysRS-1) (Leishmania donovani, UniProt A0A3Q8IA00); assay: malachite green aminoacylation assay with recombinant enzyme; thermal shift of ~[…]°C; assay type: biochemical
T1 construct: gene LdCL_150007600; full-length LdLysRS-1 (586 aa), N-terminal His6 tag

[2] = target: T1, lysyl-tRNA synthetase 1 (LdLysRS-1); assay: as above; assay type: biochemical; remark: listed apart in the source

T1 sequence (A0A3Q8IA00 entry or part of it): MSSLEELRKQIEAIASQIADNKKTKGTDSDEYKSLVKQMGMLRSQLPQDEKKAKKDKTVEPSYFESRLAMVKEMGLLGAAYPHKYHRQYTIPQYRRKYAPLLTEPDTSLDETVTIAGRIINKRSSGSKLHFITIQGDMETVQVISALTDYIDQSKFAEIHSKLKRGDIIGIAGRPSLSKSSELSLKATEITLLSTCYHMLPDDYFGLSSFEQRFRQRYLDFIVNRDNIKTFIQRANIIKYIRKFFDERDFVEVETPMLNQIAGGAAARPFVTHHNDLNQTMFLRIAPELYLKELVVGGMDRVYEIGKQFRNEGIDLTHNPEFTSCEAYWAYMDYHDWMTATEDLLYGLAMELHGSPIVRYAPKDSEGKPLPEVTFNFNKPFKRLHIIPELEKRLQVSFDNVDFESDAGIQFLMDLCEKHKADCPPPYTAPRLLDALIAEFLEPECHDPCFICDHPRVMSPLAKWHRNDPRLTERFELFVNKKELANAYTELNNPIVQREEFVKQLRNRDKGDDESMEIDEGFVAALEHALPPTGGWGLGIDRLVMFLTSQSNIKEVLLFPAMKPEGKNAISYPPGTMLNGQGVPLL

Row | SMILES | IC50 [1] | IC50 [2]
1 | C[C@@H]1CCC[C@H](C[C@@H]2Cc3cc(O)cc(O)c3C(=O)O2)O1 [3-epi-isocladosporin] | ~25.5 µM | 
2 | C[C@H]1CCC[C@H](C[C@H]2Cc3cc(O)cc(O)c3C(=O)O2)O1 [cladosporin] |  | ~4.07 µM
